We go through 13 compounds from patent US20250304576A1 (Cancer Research Technology Limited, priority 2022, published 2025).

One assay deals with T1, Recombinant IKKα (Homo sapiens, UniProt O15111).
T1 construct: purchased Millipore, Dundee, UK
T1 sequence (O15111 1-745): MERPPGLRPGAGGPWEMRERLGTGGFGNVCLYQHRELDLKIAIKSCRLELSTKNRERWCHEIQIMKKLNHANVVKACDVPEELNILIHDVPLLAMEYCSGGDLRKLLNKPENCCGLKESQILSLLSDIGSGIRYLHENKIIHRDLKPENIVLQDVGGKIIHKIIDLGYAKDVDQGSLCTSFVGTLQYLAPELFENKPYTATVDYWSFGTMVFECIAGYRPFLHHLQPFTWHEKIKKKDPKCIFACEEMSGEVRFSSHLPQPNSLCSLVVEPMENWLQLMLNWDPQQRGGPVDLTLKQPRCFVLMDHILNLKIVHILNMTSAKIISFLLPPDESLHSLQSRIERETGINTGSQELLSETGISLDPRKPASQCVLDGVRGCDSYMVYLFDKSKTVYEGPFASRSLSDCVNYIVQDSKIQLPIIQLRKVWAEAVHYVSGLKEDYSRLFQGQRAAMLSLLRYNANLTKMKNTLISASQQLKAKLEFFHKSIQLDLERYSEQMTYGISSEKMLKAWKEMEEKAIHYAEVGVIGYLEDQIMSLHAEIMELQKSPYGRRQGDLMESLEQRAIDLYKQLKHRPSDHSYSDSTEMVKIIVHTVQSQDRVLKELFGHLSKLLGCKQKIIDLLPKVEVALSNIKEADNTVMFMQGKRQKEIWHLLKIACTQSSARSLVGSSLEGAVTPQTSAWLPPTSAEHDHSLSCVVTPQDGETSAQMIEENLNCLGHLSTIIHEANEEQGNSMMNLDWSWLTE
Description: DELFIA IKKα kinase assay (apparent Ki, Cheng-Prusoff). The assay is classed as biochemical. The conditions noted are these: DELFIA assay (first line of an example). The gist of the method:
(§1)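 Recombinant IKKα or IKKβ (37 nM) with 0.375 μM biotinylated IκB-α (Ser32) peptide and 40 μM ATP in 40 mM Tris-HCl pH 7.5, 20 mM MgCl2, 60 min at 30° C. Phospho-substrate captured on streptavidin and detected by anti-phospho-IκB-α plus europium anti-mouse IgG time-resolved fluorescence; apparent Ki via Cheng-Prusoff.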

In another assay the target is T2, Recombinant IKKβ (Homo sapiens, UniProt O14920).
T2 construct: purchased Millipore, Dundee, UK
T2 sequence (O14920 1-756): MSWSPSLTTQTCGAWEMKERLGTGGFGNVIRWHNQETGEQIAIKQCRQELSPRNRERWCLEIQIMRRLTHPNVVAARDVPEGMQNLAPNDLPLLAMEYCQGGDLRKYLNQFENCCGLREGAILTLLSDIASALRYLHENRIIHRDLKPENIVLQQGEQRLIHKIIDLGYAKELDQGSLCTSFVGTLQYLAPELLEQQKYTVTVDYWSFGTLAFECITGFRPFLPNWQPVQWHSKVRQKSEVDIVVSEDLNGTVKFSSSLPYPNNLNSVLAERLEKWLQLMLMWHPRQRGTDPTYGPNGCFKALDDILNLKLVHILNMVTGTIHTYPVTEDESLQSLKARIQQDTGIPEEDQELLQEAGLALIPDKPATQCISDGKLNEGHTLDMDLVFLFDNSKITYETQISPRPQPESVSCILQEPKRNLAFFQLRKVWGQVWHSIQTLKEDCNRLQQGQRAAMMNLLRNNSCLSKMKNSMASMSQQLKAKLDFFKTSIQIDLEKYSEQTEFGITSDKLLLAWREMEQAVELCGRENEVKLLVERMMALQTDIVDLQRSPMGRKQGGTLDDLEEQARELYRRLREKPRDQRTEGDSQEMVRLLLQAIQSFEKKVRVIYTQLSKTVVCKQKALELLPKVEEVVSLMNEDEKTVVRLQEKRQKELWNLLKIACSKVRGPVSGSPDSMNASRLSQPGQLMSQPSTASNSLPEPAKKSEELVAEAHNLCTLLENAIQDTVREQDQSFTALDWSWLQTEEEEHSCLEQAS
As to the kind of experiment: DELFIA IKKβ kinase assay (apparent Ki, Cheng-Prusoff). The format is biochemical. The conditions noted are these: DELFIA assay (first line of an example). In outline: as §1

On to `Nc1n[nH]c2c(C#CC3CC3)cc(-c3ccnc(NC4COC4)c3)cc12` [Example 284, 7-(Cyclopropylethynyl)-5-(2-(oxetan-3-ylamino)pyridin-4-yl)-1H-indazol-3-amine], for which the Ki turned out to be 12 nM at Recombinant IKKα and 386 nM on Recombinant IKKβ.

Take `COC(=O)Nc1cc(-c2cc(C#CC3CCOCC3)c3[nH]nc(N)c3c2)ccn1` [Example 285]: the Ki on Recombinant IKKα is 37 nM; at Recombinant IKKβ it was 274 nM.

With `CC(C)(O)C#Cc1cc(-c2ccnc(NC3COC3)c2)cc2c(N)n[nH]c12` [Example 287, 4-(3-Amino-5-(2-(oxetan-3-ylamino)pyridin-4-yl)-1H-indazol-7-yl)-2-methylbut-3-yn-2-ol], the Ki on Recombinant IKKα came to 93 nM; on Recombinant IKKβ, 2050 nM.

Turning to `Nc1n[nH]c2c(C#CC3CCOCC3)cc(-c3ccnc(NC4COC4)c3)cc12` [Example 288, 5-(2-(Oxetan-3-ylamino)pyridin-4-yl)-7-((tetrahydro-2H-pyran-4-yl)ethynyl)-1H-indazol-3-amine], the Ki stood at 24 nM at Recombinant IKKα and 500 nM on Recombinant IKKβ.

`Nc1n[nH]c2c(C#CC3CC3)cc(-c3ccnc(NC(=O)C4CC4)c3)cc12` [Example 289, N-(4-(3-Amino-7-(cyclopropylethynyl)-1H-indazol-5-yl)pyridin-2-yl)cyclopropanecarboxamide]: the Ki at Recombinant IKKα stood at 42 nM; on Recombinant IKKβ it was 570 nM.

Consider `CC(C)(O)C#Cc1cc(-c2ccnc(NC(=O)C3CC3)c2)cc2c(N)n[nH]c12` [Example 290, N-(4-(3-Amino-7-(3-hydroxy-3-methylbut-1-yn-1-yl)-1H-indazol-5-yl)pyridin-2-yl)cyclopropanecarboxamide], for which the Ki is 55 nM on Recombinant IKKα and 242 nM at Recombinant IKKβ.

For the compound `CC(C)(O)CCc1cc(-c2ccnc(NC(=O)C3CC3)c2)cc2c(N)n[nH]c12` [Example 292, N-(4-(3-Amino-7-(3-hydroxy-3-methylbutyl)-1H-indazol-5-yl)pyridin-2-yl)cyclopropanecarboxamide], the figures for the Ki on Recombinant IKKα and on Recombinant IKKβ were 9 nM and 44 nM, respectively.

With `COC(=O)Nc1cc(-c2cc(CCC(C)(C)C)c3[nH]nc(N)c3c2)ccn1` [Example 293, Methyl (4-(3-amino-7-(3,3-dimethylbutyl)-1H-indazol-5-yl)pyridin-2-yl)carbamate], the Ki on Recombinant IKKα amounted to 19 nM; at Recombinant IKKβ it was 278 nM.

As for `CC(C)(C)C#Cc1cc(-c2ccnc3[nH]c(C4CC4)cc23)cc2c(N)n[nH]c12` [Example 294, 5-(2-Cyclopropyl-1H-pyrrolo[2,3-b]pyridin-4-v)-7-(3,3-dimethylbut-1-yn-1-Vl)-1H-indazol-3-amine], the Ki at Recombinant IKKα is 57 nM; on Recombinant IKKβ, 322 nM.

As for `CC(C)(C)C#Cc1cc(-c2ccnc3[nH]c(C4CCCC4)cc23)cc2c(N)n[nH]c12` [Example 295, 5-(2-Cyclopentyl-1H-pyrrolo[2,3-b]pyridin-4-yl)-7-(3,3-dimethylbut-1-yn-1-yl)-1H-indazol-3-amine], the Ki came out at 545 nM at Recombinant IKKα and 1160 nM on Recombinant IKKβ.

Consider `CC(C)(C)C#Cc1cc(-c2ccnc3[nH]c(C(C)(C)C)cc23)cc2c(N)n[nH]c12` [Example 296, 5-(2-(tert-Butyl)-1H-pyrrolo[2,3-b]pyridin-4-yl)-7-(3,3-dimethylbut-1-yn-1-yl)-1H-indazol-3-amine], for which the Ki on Recombinant IKKα came to 449 nM; on Recombinant IKKβ, 1080 nM.

For the compound `CC(C)(C)C#Cc1cc(-c2ccnc3[nH]c(CO)cc23)cc2c(N)n[nH]c12` [Example 297, (4-(3-Amino-7-(3,3-dimethylbut-1-yn-1-yl)-1H-indazol-5-yl)-1H-pyrrolo[2,3-b]pyridin-2-yl)methanol], the values for the Ki on Recombinant IKKα and on Recombinant IKKβ were 2 nM and 268 nM, respectively.

As to `CC(C)(C)C#Cc1cc(-c2ccnc3[nH]c(C(C)(C)O)cc23)cc2c(N)n[nH]c12` [Example 298, 2-(4-(3-Amino-7-(3,3-dimethylbut-1-yn-1-yl)-1H-indazol-5-yl)-1H-pyrrolo[2,3-b]pyridin-2-yl)propan-2-ol], the values for the Ki on Recombinant IKKα and on Recombinant IKKβ were 16 nM and 540 nM, respectively.
